These results are taken from patent US10597388B2, “Pyridazinone herbicides” (FMC CORPORATION, priority 2014, dated 2020).

Holding throughout (format): in vivo
The subject of assay [1] is chickweed (common chickweed, Stellaria media). The experiment in a line: Test C greenhouse herbicide test, postemergence. Put shortly:
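Ratings are visual scores from 0 (no effect) to 100 (complete control), made against controls 13–15 d after treatment. Postemergence sprays were applied in the greenhouse to plants 2–18 cm tall (1- to 4-leaf stage) in peat-moss/vermiculite potting medium.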

The subject of assay [2] is sedge, umbrella (small-flower umbrella sedge, Cyperus difformis). The experiment in a line: Test B flooded paddy test. The settings on record: 250 g ai/ha, Flood, visual rating on scale of 0 to 100 where 0 is no effect and 100 is complete control, 13 to 15 d after treatment. Put shortly:
(§1)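 Plants grown to the 2-leaf stage. At treatment, pots were flooded to 3 cm above the soil, compound was applied directly to the paddy water, and that depth was held throughout. After 13 to 15 d in the greenhouse, response was rated visually against controls on a 0 (no effect) to 100 (complete control) scale.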

The test system of assay [3] is ducksalad (Heteranthera limosa). The experiment in a line: Test B flooded paddy test. The settings on record: 250 g ai/ha, Flood, visual rating on scale of 0 to 100 where 0 is no effect and 100 is complete control, 13 to 15 d after treatment. Put shortly:
as §1

Assay [4] concerns barnyardgrass (Echinochloa crus-galli). The experiment in a line: Test B flooded paddy test. The settings on record: 250 g ai/ha, Flood, visual rating on scale of 0 to 100 where 0 is no effect and 100 is complete control, 13 to 15 d after treatment. Put shortly: as §1
In assay [5] the test system is rice (Oryza sativa). The experiment in a line: Test B flooded paddy test. As to conditions: 250 g ai/ha, Flood, visual rating on scale of 0 to 100 where 0 is no effect and 100 is complete control, 13 to 15 d after treatment. Put shortly: as §1
Assay [6] relates to wheat (winter wheat, Triticum aestivum). The experiment in a line: Test C greenhouse herbicide test, pre- and postemergence. Put shortly: (§2)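 Pre- and postemergence greenhouse screen; values are visual control ratings, 0 meaning no effect and 100 complete kill, assigned relative to untreated plants after 13 to 15 d.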
In assay [7] the test system is soybean (Glycine max). The description is as above. Put shortly:
as §2

[8] abbreviates: Postemergence, 31 g ai/ha, 0 to 100 scale (0 no effect, 100 complete control).
Setting [9] is: Postemergence, 125 g ai/ha, scale 0 to 100, 0 is no effect, 100 is complete control.
Where [10] appears, read: Postemergence, 250 g ai/ha, scale 0 to 100, 0 no effect, 100 complete control, 13 to 15 d.
[11] abbreviates: postemergence, 62 g ai/ha, scale 0 to 100, 0 no effect, 100 complete control.
[12] abbreviates: Preemergence, 31 g ai/ha, scale 0 to 100, 0 is no effect, 100 is complete control.
The mark [13] stands for this setting: Preemergence, 62 g ai/ha, scale 0 to 100, 0 is no effect, 100 is complete control.
[14] abbreviates: Preemergence, 125 g ai/ha, scale 0 to 100, 0 is no effect, 100 is complete control.
Where [15] appears, read: Preemergence, 250 g ai/ha, scale 0 to 100 (0 no effect, 100 complete control).
Setting [16] is: Postemergence, 31 g ai/ha, scale 0 to 100 (0 no effect, 100 complete control).

In the case of `CC(=O)Oc1c(C)nn(C)c(=O)c1-c1c(C)oc2c(C)cc(C)cc12` [Compound 16, 5-(acetyloxy)-2,6-dimethyl-4-(2,5,7-trimethyl-3-benzofuranyl)-3(2H)-pyridazinone], the “Chickweed plant response rating” value in assay [1] (setting [8]) is recorded as 75; in assay [1] (setting [11]), 80. Besides, the “Plant response rating, Chickweed” value in assay [1] (setting [9]) and in assay [1] (setting [10]) was 90 throughout. The pest or weed control at 250 g/ha in assay [2] (Cyperus difformis, 360 h, read-out: Plant response rating, Sedge, Umbrella) was found to be 0%; in assay [3] (Heteranthera limosa, 360 h, read-out: Plant response rating, Ducksalad), 30%; in assay [4] (Echinochloa crus-galli, 360 h, read-out: Plant response rating, Barnyardgrass), 0%. Besides, the plant injury at 250 g/ha in assay [5] (Oryza sativa, 360 h, read-out: Plant response rating, Rice) turned out to be 0%. The “Wheat plant response rating” value in assay [6] (setting [8]) and in assay [6] (setting [11]) was 0 each time. Moreover, the “Plant response rating, Wheat” value in assay [6] (setting [9]) and in assay [6] (setting [10]) was 0 in each case. For the same compound, the “Soybean plant response rating” value in assay [7] (setting [8]) and in assay [7] (setting [11]) was 0 throughout. The “Plant response rating, Soybean” value in assay [7] (setting [9]) and in assay [7] (setting [10]) was 0 in each case.

As for `C#CCOC(=O)Oc1c(C)nn(C)c(=O)c1-c1c(C)sc2ccc(C)cc12` [Compound 87], the “Chickweed plant response rating” value in assay [1] (setting [8]) and in assay [1] (setting [11]) was 90 throughout. The “Plant response rating, Chickweed” value in assay [1] (setting [9]) came to 95; in assay [1] (setting [10]), 98. In addition, the “Plant response rating, Sedge, Umbrella” value in assay [2] was 0. Besides, the “Plant response rating, Ducksalad” value in assay [3] amounted to 0. Also, the “Plant response rating, Barnyardgrass” value in assay [4] was 0. Moreover, the “Plant response rating, Rice” value in assay [5] was 0. Besides, the “Plant response rating, Wheat” value in assay [6] (setting [9]), in assay [6] (setting [10]), in assay [6] (setting [12]), in assay [6] (setting [13]) and in assay [6] (setting [14]) was 0 in each case. Further, the “Wheat plant response rating” value in assay [6] (setting [15]) and in assay [6] (setting [11]) was 0 in each case. Further, the “Plant response rating, Soybean” value in assay [7] (setting [9]) was determined as 10; in assay [7] (setting [10]), 5; in assay [7] (setting [12]), 0; in assay [7] (setting [13]), 0; in assay [7] (setting [14]), 100. Moreover, the “Soybean plant response rating” value in assay [7] (setting [15]) and in assay [7] (setting [11]) was 0 each time.

For the compound `CCC(=O)Oc1c(Cl)nn(C)c(=O)c1-c1c(C)sc2ccc(Cl)cc12` [Compound 111], the “Plant response rating, Chickweed” value is reported as 95 in assay [1] (setting [16]), 100 in assay [1] (setting [9]) and 98 in assay [1] (setting [10]). In assay [1] (setting [11]), the “Chickweed plant response rating” value amounted to 98. Besides, the “Plant response rating, Sedge, Umbrella” value in assay [2] turned out to be 75. In addition, the “Plant response rating, Ducksalad” value in assay [3] is 75. Further, the “Plant response rating, Barnyardgrass” value in assay [4] was found to be 0. For the same compound, the “Plant response rating, Rice” value in assay [5] came out at 0. For the same compound, the “Plant response rating, Wheat” value in assay [6] (setting [16]) was 10; in assay [6] (setting [9]), 15; in assay [6] (setting [10]), 25; in assay [6] (setting [12]), 0; in assay [6] (setting [13]), 5; in assay [6] (setting [14]), 20. In addition, in assay [6] (setting [15]), the “Wheat plant response rating” value worked out at 40. Besides, the “Plant response rating, Soybean” value amounted to 0 in assay [7] (setting [16]), 5 in assay [7] (setting [9]), 10 in assay [7] (setting [10]) and 0 in assay [7] (setting [14]). In addition, the “Soybean plant response rating” value in assay [7] (setting [15]) is 0.

As for `Cc1ccc2ccc(C)c(-c3c(O)c(C)nn(C)c3=O)c2c1` [Compound 60], the results for the “Chickweed plant response rating” value in assay [1] (setting [8]) and in assay [1] (setting [11]) were 90 and 95, respectively. The “Plant response rating, Chickweed” value was 95 in assay [1] (setting [9]) and 98 in assay [1] (setting [10]). For the same compound, in assay [2], the “Plant response rating, Sedge, Umbrella” value is 30. Besides, the “Plant response rating, Ducksalad” value in assay [3] is 20. Besides, the “Plant response rating, Barnyardgrass” value in assay [4] is reported as 35. In addition, the “Plant response rating, Rice” value in assay [5] is reported as 35. Besides, the figures for the “Wheat plant response rating” value in assay [6] (setting [8]), in assay [6] (setting [15]) and in assay [6] (setting [11]) were 5, 70 and 5, respectively. The “Plant response rating, Wheat” value in assay [6] (setting [9]) amounted to 30; in assay [6] (setting [10]), 15; in assay [6] (setting [12]) it was 10; in assay [6] (setting [13]), 40; in assay [6] (setting [14]), 45. Further, the “Soybean plant response rating” value in assay [7] (setting [8]) is 15; in assay [7] (setting [15]), 75; in assay [7] (setting [11]), 20. Further, the “Plant response rating, Soybean” value in assay [7] (setting [9]) is recorded as 40; in assay [7] (setting [10]), 50; in assay [7] (setting [12]) it was 0; in assay [7] (setting [13]), 45; in assay [7] (setting [14]) it was 65.

Consider `COc1nn(C)c(=O)c(-c2c(C)ccc3ccccc23)c1OC(=O)OC(C)C` [Compound 36], for which the “Chickweed plant response rating” value in assay [1] (setting [8]) was found to be 80; in assay [1] (setting [11]), 95. For the same compound, the “Plant response rating, Chickweed” value in assay [1] (setting [9]) and in assay [1] (setting [10]) was 95 each time. In assay [2], the “Plant response rating, Sedge, Umbrella” value turned out to be 70. The “Plant response rating, Ducksalad” value in assay [3] stood at 30. The “Plant response rating, Barnyardgrass” value in assay [4] was 0. For the same compound, the “Plant response rating, Rice” value in assay [5] is reported as 20. For the same compound, the “Wheat plant response rating” value in assay [6] (setting [8]), in assay [6] (setting [15]) and in assay [6] (setting [11]) was 0 in each case. Further, the “Plant response rating, Wheat” value in assay [6] (setting [9]) was 0; in assay [6] (setting [10]), 5; in assay [6] (setting [12]), 0; in assay [6] (setting [13]) it was 0; in assay [6] (setting [14]), 0. For the same compound, the “Soybean plant response rating” value in assay [7] (setting [8]) amounted to 0; in assay [7] (setting [15]), 20; in assay [7] (setting [11]), 0. For the same compound, the “Plant response rating, Soybean” value in assay [7] (setting [9]) stood at 5; in assay [7] (setting [10]), 15; in assay [7] (setting [12]), 100; in assay [7] (setting [13]), 0; in assay [7] (setting [14]) it was 30.

`Cc1ccc2ccccc2c1-c1c(O)cnn(C)c1=O` [Compound 56]: the “Chickweed plant response rating” value in assay [1] (setting [8]) was found to be 5; in assay [1] (setting [11]), 10. Moreover, the “Plant response rating, Chickweed” value in assay [1] (setting [9]) was 55; in assay [1] (setting [10]), 70. Further, the “Plant response rating, Sedge, Umbrella” value in assay [2] amounted to 0. Also, the “Plant response rating, Ducksalad” value in assay [3] was 0. Also, in assay [4], the “Plant response rating, Barnyardgrass” value was determined as 0. For the same compound, the “Plant response rating, Rice” value in assay [5] was found to be 0. Moreover, the “Wheat plant response rating” value in assay [6] (setting [8]) and in assay [6] (setting [11]) was 0 in each case. The “Plant response rating, Wheat” value in assay [6] (setting [9]) and in assay [6] (setting [10]) was 5 throughout. The “Soybean plant response rating” value in assay [7] (setting [8]) and in assay [7] (setting [11]) was 0 each time. Further, the “Plant response rating, Soybean” value in assay [7] (setting [9]) and in assay [7] (setting [10]) was 0 in each case.

Turning to `Cc1nn(C)c(=O)c(-c2ccc(F)c3ccccc23)c1OC(=O)CC(F)(F)F` [Compound 123], the entries for the “Plant response rating, Chickweed” value in assay [1] (setting [16]), in assay [1] (setting [9]) and in assay [1] (setting [10]) were 90, 90 and 98, respectively. In addition, the “Chickweed plant response rating” value in assay [1] (setting [11]) worked out at 90. Also, the “Plant response rating, Sedge, Umbrella” value in assay [2] came out at 70. Further, in assay [3], the “Plant response rating, Ducksalad” value is 30. In addition, the “Plant response rating, Barnyardgrass” value in assay [4] is recorded as 20. For the same compound, the “Plant response rating, Rice” value in assay [5] is listed as 15. Moreover, the “Plant response rating, Wheat” value in assay [6] (setting [16]) was 5; in assay [6] (setting [9]), 15; in assay [6] (setting [10]), 20. The “Plant response rating, Soybean” value worked out at 10 in assay [7] (setting [16]), 20 in assay [7] (setting [9]) and 65 in assay [7] (setting [10]).
